Assay [1] has as its target recombinant 17bHSD13 (N2-K300) (Homo sapiens (Human), UniProt Q7Z5P4). Nature of the assay: In Vitro 17bHSD13 Enzyme Assay. In kind it is biochemical. Conditions: 80 nM 17bHSD13, 0.5 mM NAD, 20 μM Estradiol, 2.5 h; estradiol to estrone by LC-MS/MS. The procedure:
In Vitro 17bHSD13 Enzyme Assay
The enzyme reaction was initiated by addition, using CERTUS-FLEX dispenser (GYGER), of 20 μl of substrate solution containing NAD (SIGMA, N1511) and Estradiol (SIGMA, E8875). […] Final assay conditions were 80 nM of 17bHSD13, 0.5 mM of NAD, 20 μM Estradiol and various concentrations of compound in buffer (5 mM EDTA (TEKNOVA E0306), 0.01% DDM (AFFYMETRIX D310) in 50 mM Tris-Cl, pH 7.4).
(§1) SCIEX LC-MS/MS system: Sample was injected with CTC analytical injector, SHIMATZU LC pumps LC20 and analyzed on the SCIEX API 5000 LCMSMS system with the following settings. […] The mobile phases consist of A (water with 0.2% formic acid) and B (acetonitrile with 0.2% formic acid). The LC gradient profile is as follows: 50% B during 0 to 0.5 min, a linear increase to 100% B during 0.5 to 1 min, hold at 100% B during 1 to 1.6 min then back to 50% B from 1.6 to 2 min. […] Detection was performed on a API 5000 LC/MS/MS system with a triple quadrupole mass spectrometer, a TURBO V ion source, in multiple reaction monitoring (MRM) mode at positive polarity with APCI probe. […] The dwell times were 100 ms for each transition and a depolarization and collision energy of 100 and 40, respectively. Data from MS signals was using area under curve (AUC). Ratio=Estrone/(Estrone+Estradiol)
(§2) […] […] was used for curve fitting and calculation of IC50 values.
(§3) Compound effect was calculated with the formula below;
(§4) where X represents the effect in the presence of test compound, min is DMSO and max is the maximum inhibition of enzyme using a known inhibitor as control.

Assay [2] concerns the target recombinant 17bHSD4 (M1-N311) (Homo sapiens (Human), UniProt P51659). Description: In Vitro 17bHSD4 Enzyme Assay. Conditions: 40 nM 17bHSD4, 0.125 mM NAD, 15 μM Estradiol, 1.5 h; NADH fluorescence; read-out: 17HSD17b4 Enzyme assay IC50. In kind it is biochemical. The procedure:
In Vitro 17bHSD4 Enzyme Assay
10 concentration of compounds (0.2 μl) in DMSO was added to GREINER FLUOTRAC 200 384 well plate (781076) using ECHO dispensing (BECKMAN COULTER). 80 nl of 10 mM Estradiol (SIGMA, E8875) was added using Echo dispensing. The enzyme reaction was initiated by addition, using MULTIDROP COMBI dispensing (THERMO FISHER), of 40 μl of a mix containing recombinant 17bHSD4 (M1-N311) and NAD. Final assay conditions were 40 nM of 17bHSD4, 0.125 mM of NAD, 15 μM Estradiol and various concentrations of compound in buffer (5 mM EDTA (TEKNOVA E0306), 0.01% DDM (AFFYMETRIX D310) in 50 mM Tris-Cl, pH 7.4). After each addition plates were centrifuged for 1 min at 150×g (EPPENDORF, 5810R, A-4-81). NADH formation was measured by fluorescence intensity (FI) (Ex360/Em460) at time zero (to) and at 1.5 h (t1) in a PHERASTAR FSX (BMG LABTECH). FI for each sample was calculated as FI at t1 minus FI at t0.
as §2, §3, §4

In assay [3] the target is over expressed HSD17β13 in HEK293S cells (Homo sapiens (Human), UniProt Q7Z5P4). Description: In Vitro 17bHSD13 Cell Assay. In kind it is cell-based. The following applies: HEK293S cells over expressing HSD17β13; estradiol to estrone conversion, 18 h, LC-MS/MS; read-out: 17bHSD1713 Cell assay IC50. The method, then:
In Vitro 17bHSD13 Cell Assay
Inhibition of 17bHSD13 was measured in a cell-based assay with over expressed HSD17β13 in HEK293S cells, measuring estradiol to estrone conversion by LCMS/MS.
Samples were analyzed using LC-MS/MS.
as §1, with “analysed” for “analyzed”
as §2, §3, §4

Assay [4] has as its target over expressed HSD17β9 in HEK293S cells (Homo sapiens (Human), UniProt Q92781). Description: In Vitro 17bHSD9 Cell Assay. In kind it is cell-based. Conditions: HEK293S cells over expressing HSD17β9; retinol to retinal conversion, 18 h, LC-MS/MS; read-out: 17bHSD9 Cell assay IC50. The procedure: In Vitro 17bHSD9 Cell Assay
Inhibition of 17bHSD9 was measured in a cell-based assay with over expressed HSD17β9 in HEK293S cells, measuring retinol to retinal conversion by LCMS/MS.
Cells were plated in 384 well plates (GREINER CELL culture plate 384w black/clear Poly-D-Lysine) at 10 K c/w in 30 μl of culture media (DMEM with GLUTAMAX plus 10% FBS). […] After 18 h of cell culturing for 20 μl of media was transferred using BRAVO dispensing robot (AGILENT) to a GREINER PP 384 well plate (781280) and 40 μl of 50% acetonitrile was added. Samples were analyzed using LC-MS/MS.
SCIEX LC-MS/MS system: Sample was injected with CTC analytical injector, SHIMATZU LC pumps LC20 and analysed on the SCIEX API 5000 LCMSMS system with the following settings. Samples were chromatographed on a WATERS, symmetry, C8, 3.5 μm, 2.1×50 mm) column at constant flow rate of 0.5 mL/min. The mobile phases consists of A (water with 0.2% formic acid) and B (acetonitrile with 0.2% formic acid). The LC gradient profile is as follows: 50% B during 0 to 0.1 min, a linear increase to 100% B during 0.1 to 0.8 min, hold at 100% B during 0.8 to 1.5 min then back to 50% B from 1.5 to 1.6 min and hold during run time. The run time was 2 min with retention times of approximately 1.54 and 1.62 min for Retinol and Retinal, respectively. Detection was performed on a API 5000 LC/MS/MS system with a triple quadrupole mass spectrometer, a TURBO V ion source, in multiple reaction monitoring (MRM) mode at positive polarity with ESI probe. The MRM pairs were m/z 269.3 to m/z 93.0 and m/z 285.2 to 161.0. for Retinol and Retinal, respectively. The dwell times were 100 ms for each transition and a depolarization and collision energy of 50 and 25, respectively. Data from MS signals was using area under curve (AUC). Ratio=Retinal/(Retinal+Retinol).
as §2, §3, §4

Chain of recombinant 17bHSD4 (M1-N311) (P51659 1-311): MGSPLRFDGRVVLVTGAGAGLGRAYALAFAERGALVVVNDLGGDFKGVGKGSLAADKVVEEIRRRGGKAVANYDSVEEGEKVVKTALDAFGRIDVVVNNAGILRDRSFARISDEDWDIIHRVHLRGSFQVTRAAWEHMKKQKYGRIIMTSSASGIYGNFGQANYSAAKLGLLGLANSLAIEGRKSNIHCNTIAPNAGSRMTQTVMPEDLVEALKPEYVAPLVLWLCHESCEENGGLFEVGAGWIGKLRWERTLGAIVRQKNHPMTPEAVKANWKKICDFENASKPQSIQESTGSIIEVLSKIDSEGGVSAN
Chain of over expressed HSD17β9 in HEK293S cells (Q92781 whole entry): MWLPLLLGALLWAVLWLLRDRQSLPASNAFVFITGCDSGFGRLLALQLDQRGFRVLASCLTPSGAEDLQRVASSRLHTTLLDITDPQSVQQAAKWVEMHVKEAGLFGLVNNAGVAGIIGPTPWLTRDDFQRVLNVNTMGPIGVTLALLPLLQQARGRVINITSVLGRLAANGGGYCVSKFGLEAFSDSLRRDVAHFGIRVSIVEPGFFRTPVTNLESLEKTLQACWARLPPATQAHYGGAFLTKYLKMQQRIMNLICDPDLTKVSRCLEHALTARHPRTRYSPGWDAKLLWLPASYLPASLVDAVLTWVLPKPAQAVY
Chain of recombinant 17bHSD13 (N2-K300) (Q7Z5P4 2-300): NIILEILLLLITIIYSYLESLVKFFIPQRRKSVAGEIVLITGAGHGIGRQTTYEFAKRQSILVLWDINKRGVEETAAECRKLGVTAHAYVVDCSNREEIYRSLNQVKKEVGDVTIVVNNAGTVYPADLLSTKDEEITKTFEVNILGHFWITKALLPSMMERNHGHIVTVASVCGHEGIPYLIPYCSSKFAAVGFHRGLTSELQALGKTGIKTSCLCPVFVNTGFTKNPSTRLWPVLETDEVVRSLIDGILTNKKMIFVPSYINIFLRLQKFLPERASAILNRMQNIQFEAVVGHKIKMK
Chain of over expressed HSD17β13 in HEK293S cells (Q7Z5P4 20-300): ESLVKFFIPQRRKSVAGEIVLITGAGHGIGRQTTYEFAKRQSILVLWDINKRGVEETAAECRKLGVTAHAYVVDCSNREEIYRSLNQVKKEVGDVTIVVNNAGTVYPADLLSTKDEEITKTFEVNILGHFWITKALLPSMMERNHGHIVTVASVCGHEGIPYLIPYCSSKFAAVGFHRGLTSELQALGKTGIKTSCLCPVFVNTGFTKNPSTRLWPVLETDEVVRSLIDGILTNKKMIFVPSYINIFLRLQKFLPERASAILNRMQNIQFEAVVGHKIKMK

Usually IC50 stands for the concentration that gives 50% inhibition. For the compound `O=C(c1nnc(-c2ccc(F)c(O)c2)o1)N1CC[C@H](c2ccccc2)C1` [Example 1, (R)-(5-(4-Fluoro-3-hydroxyphenyl)-1,3,4-oxadiazol-2-yl)(3-phenylpyrrolidin-1-yl)methanone], the IC50 in assay [1] was found to be 0.308 µM; in assay [2] it was 32.4 µM; in assay [3], 0.75 µM.
For the compound `O=C(c1cc(-c2ccc(F)c(O)c2)no1)N1CCC(c2ccccc2)C1` (stereo not shown) [Example 6, (3-(4-Fluoro-3-hydroxyphenyl)isoxazol-5-yl)(3-phenylpyrrolidin-1-yl)methanone], the IC50 is 0.041 µM in assay [1], 89.1 µM in assay [2], 0.98 µM in assay [3] and over 50 µM in assay [4].
Regarding `O=C(c1cc(-c2cc(F)c(F)c(O)c2F)on1)N1CC[C@H](c2ccc(Cl)cc2)C1` [Example 8, (R)-(3-(4-Chlorophenyl)pyrrolidin-1-yl)(5-(2,4,5-trifluoro-3-hydroxyphenyl)isoxazol-3-yl)methanone], the IC50 in assay [1] amounted to 0.047 µM; in assay [2] it was 6.7 µM; in assay [3], 0.61 µM; in assay [4], 25 µM.
Turning to `N#Cc1c(C(=O)N2CCC(c3ccccc3)C2)noc1-c1ccc(F)c(O)c1` (stereo not shown) [Example 13, 5-(4-Fluoro-3-hydroxyphenyl)-3-(3-phenylpyrrolidine-1-carbonyl)isoxazole-4-carbonitrile], the IC50 in assay [1] came out at 0.04 µM; in assay [2], 15.6 µM; in assay [3], 0.46 µM.
With `N#Cc1c(C(=O)N2CCN(c3nc4ccccc4o3)CC2)noc1-c1cc(F)c(F)c(O)c1F` [Example 23, 3-(4-(Benzo[d]oxazol-2-yl)piperazine-1-carbonyl)-5-(2,4,5-trifluoro-3-hydroxyphenyl)isoxazole-4-carbonitrile], the IC50 in assay [1] was 0.141 µM; in assay [2] it was 33.9 µM; in assay [3], 0.93 µM; in assay [4], over 50 µM.
For `COc1ccc(OC2CCN(C(=O)c3noc(-c4cc(F)c(F)c(O)c4F)c3C#N)CC2)nc1` [Example 25, 3-(4-((5-Methoxypyridin-2-yl)oxy)piperidine-1-carbonyl)-5-(2,4,5-trifluoro-3-hydroxyphenyl)isoxazole-4-carbonitrile] the same measures were 0.288 µM, 24.8 µM, 0.82 µM and 22.7 µM.
The like results for `CC[C@H]1CN(C(=O)c2noc(-c3cc(F)c(F)c(O)c3F)n2)CC(=O)N1` [Example 34, (S)-6-Ethyl-4-(5-(2,4,5-trifluoro-3-hydroxyphenyl)-1,2,4-oxadiazole-3-carbonyl)piperazin-2-one] were, in that order, 0.581 µM, over 50 µM, over 50 µM and over 50 µM.
For `CC(C)C1COCCN1C(=O)c1noc(-c2cc(F)c(F)c(O)c2F)n1` (stereo not shown) [Example 35, (3-Isopropylmorpholino)(5-(2,4,5-trifluoro-3-hydroxyphenyl)-1,2,4-oxadiazol-3-yl)methanone], the IC50 in assay [1] came out at 0.64 µM; in assay [2] it was 42.2 µM; in assay [3], 2.22 µM; in assay [4], 4.2 µM.
For `C[C@@H]1COC[C@H](C)N1C(=O)c1noc(-c2cc(F)c(F)c(O)c2F)n1` [Example 36, ((3R,5S)-3,5-Dimethylmorpholino)(5-(2,4,5-trifluoro-3-hydroxyphenyl)-1,2,4-oxadiazol-3-yl)methanone], the IC50 in assay [1] was 1.03 µM; in assay [2] it was over 50 µM; in assay [3] it was 1.32 µM; in assay [4], over 50 µM.
Regarding `O=C(c1noc(-c2cc(F)c(F)c(O)c2F)n1)N1CCOCC1` [Example 39, Morpholino(5-(2,4,5-trifluoro-3-hydroxyphenyl)-1,2,4-oxadiazol-3-yl)methanone], the IC50 in assay [1] was 1.75 µM; in assay [2], over 50 µM; in assay [3], 1.48 µM; in assay [4], over 50 µM.
With `O=C(c1noc(-c2cc(F)c(F)c(O)c2F)n1)N1CCSCC1` [Example 40, Thiomorpholino(5-(2,4,5-trifluoro-3-hydroxyphenyl)-1,2,4-oxadiazol-3-yl)methanone], the IC50 in assay [1] was 0.7 µM; in assay [2], over 50 µM; in assay [3] it was 1.46 µM; in assay [4], over 50 µM.
Consider `N#Cc1cccc(C2CN(C(=O)c3noc(-c4cc(F)c(F)c(O)c4F)n3)CCN2)c1` (stereo not shown) [Example 42, 3-(4-(5-(2,4,5-Trifluoro-3-hydroxyphenyl)-1,2,4-oxadiazole-3-carbonyl)piperazin-2-yl)benzonitrile], for which the IC50 in assay [1] was 0.908 µM; in assay [2], over 50 µM; in assay [3], 10 µM; in assay [4], over 50 µM.
In the case of `O=C(c1cc(-c2cc(F)c(F)c(O)c2F)on1)N1CC[C@H](c2ccccc2)C1` [Example 104, (R)-(3-Phenylpyrrolidin-1-yl)(5-(2,4,5-trifluoro-3-hydroxyphenyl)isoxazol-3-yl)methanone], the IC50 in assay [1] came to 0.057 µM; in assay [2], 9.6 µM; in assay [3], 0.54 µM.
